Measured values published in patent publication US20210255193A1, “LYSINE REACTIVE PROBES AND USES THEREOF” (The Scripps Research Institute, priority 2017, published 2021).

Legend:
Assay in all cases: competitive isoTOP-ABPP
Assay type in all cases: binding
SNX8 Sorting nexin-8 = molecular target: T1, SNX8 Sorting nexin-8 (Homo sapiens, UniProt Q9Y5X2); conditions: for isoTOP-ABPP reactivity ratio at lysine Q9Y5X2_K316 / isoTOP-ABPP ratio (R) at liganded lysine Q9Y5X2_K316: 50 uM, in vitro; for isoTOP-ABPP reactivity ratio at lysine Q9Y5X2_K316: 231 sol; for isoTOP-ABPP ratio (R) at liganded lysine Q9Y5X2_K316: sol, 231; for isoTOP-ABPP ratio, lysine Q9Y5X2_K316: 50 uM_231_sol_in vitro
T1 construct: endogenous in cells; host or cells: MDA-MB-231 lysate
T1 sequence (Q9Y5X2 1-465): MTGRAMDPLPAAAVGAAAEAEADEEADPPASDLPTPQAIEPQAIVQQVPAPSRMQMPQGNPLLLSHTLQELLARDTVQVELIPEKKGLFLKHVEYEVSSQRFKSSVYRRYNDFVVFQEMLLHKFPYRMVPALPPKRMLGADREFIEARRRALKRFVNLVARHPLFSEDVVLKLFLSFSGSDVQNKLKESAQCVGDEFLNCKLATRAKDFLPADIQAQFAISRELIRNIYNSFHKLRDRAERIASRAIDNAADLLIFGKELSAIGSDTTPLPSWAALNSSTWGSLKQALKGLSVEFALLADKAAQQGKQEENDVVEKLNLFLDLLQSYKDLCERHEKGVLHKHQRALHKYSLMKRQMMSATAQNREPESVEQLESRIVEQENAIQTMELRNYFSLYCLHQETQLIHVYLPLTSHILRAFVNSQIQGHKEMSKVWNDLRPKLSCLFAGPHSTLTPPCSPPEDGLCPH
Summary of the method: (§1)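 Lysate + fragment (50 μM activated ester / 100 μM guanidinylating agent) or DMSO → 0.1 mM STP-alkyne, 1 h, RT → CuAAC to TEV tags (compound light, DMSO heavy) → LC-MS. R = heavy/light MS1 area; liganded lysine if R≥4.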

[1] = molecular target: T2, EEF1A1 Elongation factor 1-alpha 1 (Homo sapiens, UniProt P68104); conditions: for isoTOP-ABPP reactivity ratio at lysine P68104_K84 / isoTOP-ABPP ratio (R) at liganded lysine P68104_K84: 50 uM, in vitro; for isoTOP-ABPP reactivity ratio at lysine P68104_K84: 231 sol; for isoTOP-ABPP ratio (R) at liganded lysine P68104_K84: sol, 231; for isoTOP-ABPP ratio, lysine P68104_K84: 100 uM_231_sol_in vitro
T2 construct: isoTOP-ABPP experiments performed in cell lysates (in vitro); endogenous in cells; host or cells: soluble proteome of human cancer cell lines (MDA-MB-231, Ramos, Jurkat)
T2 sequence (P68104 1-462): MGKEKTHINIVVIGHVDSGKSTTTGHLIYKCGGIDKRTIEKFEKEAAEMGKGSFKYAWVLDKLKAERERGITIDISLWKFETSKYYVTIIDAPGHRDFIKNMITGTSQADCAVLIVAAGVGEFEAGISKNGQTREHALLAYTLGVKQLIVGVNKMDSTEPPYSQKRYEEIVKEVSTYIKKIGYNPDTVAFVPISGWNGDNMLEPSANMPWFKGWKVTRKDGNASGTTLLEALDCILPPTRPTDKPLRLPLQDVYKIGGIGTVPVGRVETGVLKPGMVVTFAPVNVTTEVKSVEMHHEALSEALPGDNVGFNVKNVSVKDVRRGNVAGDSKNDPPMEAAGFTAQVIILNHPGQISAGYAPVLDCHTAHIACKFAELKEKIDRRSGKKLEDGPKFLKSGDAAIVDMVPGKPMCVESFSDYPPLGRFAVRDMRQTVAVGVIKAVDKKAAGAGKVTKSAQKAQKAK
Summary of the method: as §1

SFXN1 Sideroflexin-1 = molecular target: T3, SFXN1 Sideroflexin-1 (Homo sapiens, UniProt Q9H9B4); conditions: for isoTOP-ABPP reactivity ratio at lysine Q9H9B4_K170 / isoTOP-ABPP ratio (R) at liganded lysine Q9H9B4_K170: 50 uM, in vitro; for isoTOP-ABPP reactivity ratio at lysine Q9H9B4_K170: 231 sol; for isoTOP-ABPP ratio (R) at liganded lysine Q9H9B4_K170: sol, 231
T3 construct: endogenous in cells; host or cells: MDA-MB-231 lysate
T3 sequence (Q9H9B4 1-322): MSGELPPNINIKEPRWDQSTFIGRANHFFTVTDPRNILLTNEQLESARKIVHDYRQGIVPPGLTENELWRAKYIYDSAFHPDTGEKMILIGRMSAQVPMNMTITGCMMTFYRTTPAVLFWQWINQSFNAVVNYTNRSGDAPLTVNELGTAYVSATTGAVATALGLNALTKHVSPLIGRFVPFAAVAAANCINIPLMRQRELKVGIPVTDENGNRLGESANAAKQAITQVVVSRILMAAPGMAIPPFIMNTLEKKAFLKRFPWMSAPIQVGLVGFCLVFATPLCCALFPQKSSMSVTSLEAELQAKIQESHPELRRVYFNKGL
Summary of the method: as §1

## O=C(CCc1cn(-c2ccccc2)nc1-c1ccccc1)Oc1ccc([N+](=O)[O-])cc1[N+](=O)[O-] [fragment 29, 2,4-Dinitrophenyl 3-(1,3-diphenyl-1H-pyrazol-4-yl)propanoate]
SNX8 Sorting nexin-8
  isoTOP-ABPP reactivity ratio at lysine Q9Y5X2_K316: 3.4
[1]
  isoTOP-ABPP reactivity ratio at lysine P68104_K84: 20.0
SFXN1 Sideroflexin-1
  isoTOP-ABPP reactivity ratio at lysine Q9H9B4_K170: 20.0

## O=C(Oc1ccc([N+](=O)[O-])cc1[N+](=O)[O-])C(c1ccccc1)c1ccccc1 [fragment 30, 2,4-Dinitrophenyl 2,2-diphenylacetate]
[1]
  isoTOP-ABPP reactivity ratio at lysine P68104_K84: 0.5
SFXN1 Sideroflexin-1
  isoTOP-ABPP reactivity ratio at lysine Q9H9B4_K170: 4.5

## O=C(Oc1ccc([N+](=O)[O-])cc1[N+](=O)[O-])c1cc(C(F)(F)F)cc(C(F)(F)F)c1 [fragment 31, 2,4-Dinitrophenyl 3,5-bis(trifluoromethyl)benzoate]
[1]
  isoTOP-ABPP reactivity ratio at lysine P68104_K84: 0.4

## Cn1cc(CC(=O)Oc2ccc([N+](=O)[O-])cc2[N+](=O)[O-])c2ccccc21 [fragment 32, 2,4-Dinitrophenyl 2-(1-methyl-1H-indol-3-yl)acetate]
[1]
  isoTOP-ABPP reactivity ratio at lysine P68104_K84: 0.4
SFXN1 Sideroflexin-1
  isoTOP-ABPP reactivity ratio at lysine Q9H9B4_K170: 8.6

## COc1cc(CCC(=O)Oc2ccc([N+](=O)[O-])cc2[N+](=O)[O-])cc(OC)c1OC [fragment 33, 2,4-Dinitrophenyl 3-(3,4,5-trimethoxyphenyl)propanoate]
SNX8 Sorting nexin-8
  isoTOP-ABPP reactivity ratio at lysine Q9Y5X2_K316: 4.1

## O=C(CCc1coc2cc(F)ccc2c1=O)Oc1ccc([N+](=O)[O-])cc1[N+](=O)[O-] [fragment 36, 2,4-Dinitrophenyl 3-(7-fluoro-4-oxo-4H-chromen-3-yl)propanoate]
SNX8 Sorting nexin-8
  isoTOP-ABPP ratio (R) at liganded lysine Q9Y5X2_K316: 3.6
[1]
  isoTOP-ABPP ratio (R) at liganded lysine P68104_K84: 0.7

## O=C(Oc1ccc([N+](=O)[O-])cc1[N+](=O)[O-])c1ccc(-c2ccccc2)cc1 [fragment 37, 2,4-Dinitrophenyl [1,1′-biphenyl]-4-carboxylate]
[1]
  isoTOP-ABPP ratio (R) at liganded lysine P68104_K84: 20.0

## O=C(CC12CC3CC(CC(C3)C1)C2)Oc1ccc([N+](=O)[O-])cc1[N+](=O)[O-] [fragment 38, 2,4-Dinitrophenyl 2-(adamantan-1-yl)acetate]
SFXN1 Sideroflexin-1
  isoTOP-ABPP ratio (R) at liganded lysine Q9H9B4_K170: 1.9

## O=C(Oc1ccc([N+](=O)[O-])cc1[N+](=O)[O-])c1ccc(Oc2ccccc2)cc1 [fragment 39, 2,4-Dinitrophenyl 4-phenoxybenzoate]
SNX8 Sorting nexin-8
  isoTOP-ABPP ratio (R) at liganded lysine Q9Y5X2_K316: 1.4

## O=C(Oc1ccc([N+](=O)[O-])cc1[N+](=O)[O-])c1ccccc1Nc1cccc(C(F)(F)F)c1 [fragment 40, 2,4-Dinitrophenyl 2-((3-(trifluoromethyl)phenyl)amino)benzoate]
SNX8 Sorting nexin-8
  isoTOP-ABPP ratio (R) at liganded lysine Q9Y5X2_K316: 2.0

## CC(C)(C)OC(=O)NCCCC(=O)Oc1ccc([N+](=O)[O-])cc1[N+](=O)[O-] [fragment 41, 2,4-Dinitrophenyl 4-((tert-butoxycarbonyl)amino)butanoate]
SFXN1 Sideroflexin-1
  isoTOP-ABPP ratio (R) at liganded lysine Q9H9B4_K170: 2.5

## CC(=O)Oc1ccc([N+](=O)[O-])cc1[N+](=O)[O-] [fragment 43, 2,4-Dinitrophenyl acetate]
[1]
  isoTOP-ABPP ratio (R) at liganded lysine P68104_K84: 0.7

## N#Cc1ccc(C(=O)Oc2ccc([N+](=O)[O-])cc2[N+](=O)[O-])cc1 [fragment 44, 2,4-Dinitrophenyl 4-cyanobenzoate]
SFXN1 Sideroflexin-1; 50 uM_231_sol_in vitro
  isoTOP-ABPP ratio, lysine Q9H9B4_K170: 0.9

## O=C(CCc1ccc2c(c1)OCO2)Oc1ccc([N+](=O)[O-])cc1[N+](=O)[O-] [fragment 45, 2,4-Dinitrophenyl 3-(benzo[d][1,3]dioxol-5-yl)propanoate]
SFXN1 Sideroflexin-1; 50 uM_231_sol_in vitro
  isoTOP-ABPP ratio, lysine Q9H9B4_K170: 2.1

## O=C(ON1C(=O)CCC1=O)c1cc(C(F)(F)F)cc(C(F)(F)F)c1 [fragment 46, 3,5-Bis(trifluoromethyl)benzoic acid NHS ester]
SNX8 Sorting nexin-8
  isoTOP-ABPP ratio, lysine Q9Y5X2_K316: 2.7
SFXN1 Sideroflexin-1; 50 uM_231_sol_in vitro
  isoTOP-ABPP ratio, lysine Q9H9B4_K170: 0.9

## COC(=O)NC(=NC(=O)OCC1c2ccccc2-c2ccccc21)n1cccn1 [fragment 49, N-Methoxycarbonyl-N′-9-fluorenylmethoxycarbonyl-pyrazole-1-carboxamidine]
[1]
  isoTOP-ABPP ratio, lysine P68104_K84: 1.2

## CC(C)(C)OC(=O)N=C(NC(=O)OC(C)(C)C)n1cccn1 [fragment 50, reference compound]
[1]
  isoTOP-ABPP ratio, lysine P68104_K84: 1.3
SFXN1 Sideroflexin-1; 100 uM_231_sol_in vitro
  isoTOP-ABPP ratio, lysine Q9H9B4_K170: 1.9

## NC(=O)c1cc(C(F)(F)F)cc(C(F)(F)F)c1 [fragment 51, reference compound]
SNX8 Sorting nexin-8
  isoTOP-ABPP ratio, lysine Q9Y5X2_K316: 1.2
